From patent US10888511B2, “Methods and articles of manufacture for the treatment of skin” (Advanced Collagen Science LLC, priority 2013, dated 2021)

Assays:
Human Skin (Temple Area) = test: Acetylation of human skin (temple area) following dermabrasion, in ethanol; format: in vivo; settings: 50 mg/mL in ethanol, approximately 0.25 mL aliquots, 1 minute, after dermabrasion, up to 5 treatments
Protocol: (§1) In this example, glutaric anhydride was applied to temporal defects adjacent to periorbital areas. Skin defects were first subject to gentle dermabrasion followed by application of 0.1M disodium phosphate solution, pH 8.3 for 30 seconds using surgical gauze. Glutaric anhydride (50 mg/mL) was dissolved in ethanol. Aliquots of approximately 0.25 mL were applied to the defects for 1 minute using surgical gauze. Treatment sites were then rinsed with 0.1M phosphate buffered saline, pH 7.2. Up to 5 treatments were made to specific skin sites

Processed Human Dermis = test: Acetylation of processed human skin (epithelium removed): mechanical properties; settings: 100 mg/mL in dilute alkaline buffer pH 8.5, 1-minute treatment, vs specimen treated with buffer alone
Protocol: Processed human skin was obtained for treatment. The processed skin was comprised of lyophilized dermis. Two samples were tested, two 2 cm×4 cm specimens. One of specimens was treated with 100 mg/mL of glutaric anhydride. The second specimen was treated with buffer solution alone. The rejuvenation agent was prepared in dilute alkaline buffer solution, pH 8.5, quickly dissolved and applied to the dermis within 15 seconds. Prior to treatment with the active agent, skin specimens were pre-treated with buffer alone. Treatments were completed in 1-minute.

Human Skin [1] = test: Acetylation of human skin using glutaric anhydride in alkaline buffer solution following micro-needle roller treatment; format: in vivo; settings: 40 mg/mL in 0.3M disodium phosphate pH 9.1, forearm
Protocol: In this example, glutaric anhydride was applied to the forearm. A skin area approximately 4 mm×4 mm was punctured using a micro-needle roller, followed by pretreated with 0.1M sodium phosphate buffer, pH 8.3 for 30 seconds using cotton swab. Glutaric anhydride powder (40 mg/mL) was dissolved in 0.3M disodium phosphate solution, pH 9.1 and gently applied to the pre-treated skin area for 1 minute using a cotton swab. The sites were final rinsed using an alcohol swab.

Human Skin [2] = test: Acetylation of human skin using glutaric anhydride in pH adjusted vegetable oil following micro-needle roller treatment; format: in vivo; settings: 40 mg/mL in vegetable oil adjusted to pH 9.1, forearm, 1 minute
Protocol: In this example, glutaric anhydride was applied to the forearm. A skin area approximately 4 mm×4 mm was punctured using a micro-needle roller, followed by pretreated with 0.1M disodium phosphate solution, pH 8.3 for 30 seconds using cotton swab. Glutaric anhydride powder (40 mg/mL) was dispersed in vegetable oil that was adjusted to a pH of 9.1 using granules of sodium hydroxide powder and gently applied to the pre-treated skin area for 1 minute using a cotton swab. The sites were rinsed using an alcohol swab.

Human Skin [3] = test: Acetylation of human skin without dermabrasion, micro-needle roll or penetration enhancers; format: in vivo; settings: 20 mg/mL in 0.3M disodium phosphate pH 8.9, 30 seconds to 1 minute, no dermabrasion
Protocol: In this example, the pre-treatment buffer, 0.1M disodium phosphate solution, pH 8.3, was applied for 30 seconds using surgical gauze. Glutaric anhydride (20 mg/mL) was mixed in 0.3M disodium phosphate solution at pH 8.9 and immediately (less than 5 seconds after dissolution) applied to the defects for 30 seconds to 1 minute using surgical gauze. Treatment sites were then rinsed with 0.1M phosphate buffered saline, pH 7.2. No effect on skin thickness or appearance was noted.

[4] = tested on: Human Skin (Hand and Temple); test: Acetylation of human skin (hand and temple) following dermabrasion, in ethanol or anhydrous alcohol; format: in vivo; settings: 50 mg/mL in ethanol or anhydrous alcohol, 1 minute, after dermabrasion, up to 5 treatments
Protocol: as §1, with “in ethanol or anhydrous alcohol and” for “in ethanol. Aliquots of approximately 0.25 mL were”, “skin sites.” for “skin sites”

Human Skin [5] = test: Acetylation of human skin using glutaric anhydride in alkaline EDTA solution following pretreatment with alkaline EDTA solution; format: in vivo; settings: powder on gauze flushed with 0.035M disodium EDTA pH 9.0, upper cheek
Source text: In this example, glutaric anhydride was applied to the cheek. An area of the upper cheek, below the eye, was pretreated with pH adjusted 0.035M disodium EDTA (pH 9.0) applied using a gauze pad. Glutaric anhydride powder was finely ground using a mortar and pestle and rubbed into a second gauze pad. The gauze was placed on the treatment area and flushed with pH adjusted 0.035M disodium EDTA (pH 9.0) to deliver the glutaric anhydride to the treatment site as it dissolved in the EDTA solution. […] Two such applications were performed.

Human Skin [6] = test: Acetylation of human skin using alcohol penetration enhancer; format: in vivo; settings: 50 mg/mL in ethanol, 1 minute, no dermabrasion, up to 5 treatments
Protocol: as §1, with “pretreated” for “first subject to gentle dermabrasion followed”, “ethanol and” for “ethanol. Aliquots of approximately 0.25 mL were”

Human Skin [7] = test: Acetylation of human skin using glutaric anhydride powder without dermabrasion; format: in vivo; settings: powder (10 mg/mL) applied to wet defects, 1 minute, no dermabrasion, up to 5 treatments
Protocol: In this example, glutaric anhydride was applied to temporal defects adjacent to periorbital areas. Skin defects were pretreated by application of 0.1M disodium phosphate solution, pH 8.3 for 30 seconds using surgical gauze. Glutaric anhydride powder (10 mg/mL) was gently applied to the wet defects for 1 minute, or until the powder dissolved, using surgical gauze. The powder Treatment sites were then rinsed with 0.1M phosphate buffered saline, pH 7.2. Up to 5 treatments were made to specific skin sites

Human Skin [8] = test: Acetylation of human skin using glutaric anhydride in pH adjusted vegetable oil without dermabrasion; format: in vivo; settings: 30 mg/mL dispersed in vegetable oil adjusted to pH 9.0, 1 minute, one treatment, no dermabrasion
Protocol: (§2) In this example, glutaric anhydride was applied to temporal defects adjacent to periorbital areas. Skin defects were pretreated by application of 0.1M disodium phosphate solution, pH 8.3 for 30 seconds using surgical gauze. Glutaric anhydride powder (30 mg/mL) was dispersed in vegetable oil adjusted to a pH of 9.0 using 10N NaOH and gently applied to the wet defects for 1 minute using surgical gauze. The treatment sites were then rinsed with 0.1M phosphate buffered saline, pH 7.2. Only one treatment was made to temporal skin sites.

Human Skin [9] = test: Acetylation of human skin following dermabrasion (aqueous buffer); format: in vivo; settings: 20 mg/mL in 0.3M disodium phosphate pH 8.9, after gentle dermabrasion, temporal defects
Protocol: In this example, glutaric anhydride was applied to temporal defects adjacent to periorbital areas. Skin defects were first subject to gentle dermabrasion followed by application of 0.1M disodium phosphate solution, pH 8.3 for 30 seconds using surgical gauze. Glutaric anhydride (20 mg/mL) was mixed in 0.3M disodium phosphate solution at pH 8.9 and immediately (less than 5 seconds after dissolution) applied to the defects for 30 seconds to 1 minute using surgical gauze. Treatment sites were then rinsed with 0.1M phosphate buffered saline, pH 7.2. Pre-treatment and post-treatment photos were taken and the results evaluated.

Human Skin [10] = test: Acetylation of human skin using glutaric anhydride in vegetable oil without dermabrasion; format: in vivo; settings: 30 mg/mL dispersed in vegetable oil, 1 minute, one treatment, no dermabrasion
Protocol: as §2, with “oil” for “oil adjusted to a pH of 9.0 using 10N NaOH”

[11] = after micro-needle roller, 1 minute

- Sensation at treated sites immediately after treatment (Human Skin [1]; 1 minute): mild tingly feeling
- Color of treated sites (Human Skin [1]; [11]): slightly red
- Sensation at treated sites immediately after treatment and for sometime after (Human Skin [2]): mild tingly feeling
- Color of treated sites (Human Skin [2]; after micro-needle roller): slightly red
- Sensation as the glutaric anhydride penetrated the skin (Human Skin [5]): slight burning or tingly sensation
- Redness at the treatment site (Human Skin [5]; after gauze removed and site flushed): Some redness
- Sensation at treated sites immediately after treatment and for sometime after (Human Skin [8]): mild tingly feeling
- Sensation at treated sites immediately after treatment and for sometime after (Human Skin [10]): mild tingly feeling
Compound: O=C1CCCC(=O)O1 [glutaric anhydride]
- Skin smoothness (visual) (Human Skin (Temple Area)): visual improvement
- Skin thickness at the treatment sites (tactile) (Human Skin (Temple Area)): tactile increase
- Durometer, Change (increase) (Processed Human Dermis): 5.3% increase
- Low Chord Modulus, Change (decrease) (Processed Human Dermis): 50.5% decrease
- Thickness, Change (increase) (Processed Human Dermis): 18.3% increase
- Water Retention, Change (increase) (Processed Human Dermis): 66.8% increase
- Feel of application site (Human Skin [1]; [11]): felt slightly thicker immediately after treatment only
- Effect of repeated treatments on skin appearance (Human Skin [1]; after micro-needle roller, repeated treatments): appeared to enhance beneficial results
- Feel of application site (Human Skin [2]; after micro-needle roller): felt thicker immediately after treatment and for several days later
- Skin thickness at the treatment sites (tactile) (Human Skin [2]; after micro-needle roller): tactile increase
- Effect on skin thickness or appearance (Human Skin [3]): No effect
- Skin appearance (visual) [4]: visual improvement
- Skin thickness at the treatment sites (tactile) [4]: tactile increase
- Persistence of skin thickening (Human Skin [5]; after the second application): more than 2 weeks
- Skin thickening at the treatment site (Human Skin [5]; after the second application): obvious minor skin thickening
- Skin smoothness (visual) (Human Skin [6]): minor visual improvement
- Skin thickness at the treatment sites (tactile) (Human Skin [6]): tactile increase
- Skin smoothness (visual) (Human Skin [7]): No visual improvement
- Tactile increase in skin at the treatment sites (Human Skin [7]): a tactile increase in skin as observed
- Feel of application sites (Human Skin [8]): thicker and softer
- Skin smoothness (visual) (Human Skin [8]): visual improvement
- Skin thickness at the treatment sites (tactile) (Human Skin [8]): tactile increase
- Appearance of skin defects (Human Skin [9]): improvement
- Feel of application sites (Human Skin [10]): thicker and softer
- Skin smoothness (visual) (Human Skin [10]): minor visual improvement
- Skin thickness at the treatment sites (tactile) (Human Skin [10]): tactile increase
